This note sets out measurements from US20070032529A1, “Pyrazole compounds and their use as antidiabetes agents” (Japan Tobacco Inc., priority 2005, published 2007).

Usually IC50 stands for the concentration needed to halve the response being measured.

This test deals with T1, recombinant human liver glycogen phosphorylase (Homo sapiens, UniProt P06737).
T1 construct: made in house; host or cells: Sf9 insect cells (crude homogenate, diluted, used as the enzyme solution)
T1 sequence (P06737 1-847): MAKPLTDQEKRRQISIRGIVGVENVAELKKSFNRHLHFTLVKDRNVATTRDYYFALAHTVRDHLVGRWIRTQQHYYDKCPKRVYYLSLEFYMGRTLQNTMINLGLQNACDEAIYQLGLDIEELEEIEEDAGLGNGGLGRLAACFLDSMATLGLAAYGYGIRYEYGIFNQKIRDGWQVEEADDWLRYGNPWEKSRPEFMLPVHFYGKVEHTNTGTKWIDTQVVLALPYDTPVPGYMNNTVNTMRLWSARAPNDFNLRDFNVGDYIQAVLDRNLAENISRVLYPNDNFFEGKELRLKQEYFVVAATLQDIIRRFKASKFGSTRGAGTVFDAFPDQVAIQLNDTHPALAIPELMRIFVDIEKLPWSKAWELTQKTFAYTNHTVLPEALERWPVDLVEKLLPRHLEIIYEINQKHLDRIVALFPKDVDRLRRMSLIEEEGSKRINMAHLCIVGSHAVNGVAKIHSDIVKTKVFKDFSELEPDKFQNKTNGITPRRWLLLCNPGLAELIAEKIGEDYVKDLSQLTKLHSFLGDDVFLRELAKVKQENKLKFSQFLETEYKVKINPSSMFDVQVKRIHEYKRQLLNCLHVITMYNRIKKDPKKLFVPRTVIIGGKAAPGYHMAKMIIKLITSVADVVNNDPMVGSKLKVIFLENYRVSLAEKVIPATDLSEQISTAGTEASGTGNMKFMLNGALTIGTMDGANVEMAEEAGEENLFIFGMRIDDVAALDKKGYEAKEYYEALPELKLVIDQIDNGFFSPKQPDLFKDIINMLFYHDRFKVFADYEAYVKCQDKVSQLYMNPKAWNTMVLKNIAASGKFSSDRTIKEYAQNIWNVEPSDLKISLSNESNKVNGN
Nature of the test: Measuring liver glycogen phosphorylase activity (forward reaction system, NADPH absorbance at 340 nm). Type of test: biochemical. The following applies: for inhibition at 1 µM: compound concentration 1000 nmol (in parentheses). In outline: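 Compounds in 1% DMSO; activity taken as blank-subtracted 340 nm absorbance change across 75 min at room temperature. Forward reaction: glucose-1-phosphate released from glycogen converted by coupling enzymes, yielding NADPH; enzyme from recombinant Sf9 homogenate, reaction containing glucose, pH 6.8. IC50 from two-point linear interpolation.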

The mark [1] stands for this setting: compound concentration 100 nmol (in parentheses), read-out: inhibition rate (%) at a certain concentration.
[2] abbreviates: enzyme inhibitory activity with respect to liver glycogen phosphorylase, class symbols.
Setting [3] is: figure in brackets (100), read-out: IC50: % value given with (100).
The mark [4] stands for this setting: figure in brackets (300), read-out: IC50 column: % value printed with (300).
Setting [5] is: read-out: inhibition rate (%) at a certain concentration.
Where [6] appears, read: human liver glycogen phosphorylase, class symbol.
Setting [7] is: compound concentration 300 nmol (in parentheses), read-out: inhibition rate (%) at a certain concentration.
The mark [8] stands for this setting: compound concentration 100 nmol (in parentheses).

SMILES strings stand for the structures. Structures can show the parent of a compound that is named as a salt. Where two headings read alike, the source gives them in different places.

Regarding `O=C(Nc1cnccn1)c1cc(NC(=O)c2cc(F)c(F)cc2Cl)[nH]n1` [Example 1-144], the inhibition at 0.1 µM under setting [1] came out at 5%.
`CN(C)c1nc(CNC(=O)c2cc(NC(=O)c3cc(F)c(F)cc3Cl)[nH]n2)cs1` [Example 1-57]: the IC50 under setting [2] was under 0.1 µM.
In the case of `O=C(NCc1ccc(-c2cccs2)s1)c1cc(NC(=O)c2cc(F)c(F)cc2Cl)[nH]n1` [Example 1-159], the IC50 under setting [2] is 0.1 to 0.3 µM.
Turning to `CC(=O)Nc1ccc(CNC(=O)c2cc(NC(=O)c3cc(F)c(F)cc3Cl)[nH]n2)cc1` [Example 2-18], the concentration for half-maximal inhibition (IC50) under setting [2] is under 0.1 µM.
As for `N#CC(NC(=O)c1cc(NC(=O)c2cc(F)c(F)cc2Cl)[nH]n1)c1ccccc1` (stereo not drawn) [Example 1-75], under setting [2], the IC50 is under 0.1 µM.
The same measure, in the same setting: to `O=C(NCc1nnc[nH]1)c1cc(NC(=O)c2cc(F)c(F)cc2Cl)[nH]n1` [Example 2-2-1, 5-(2-chloro-4,5-difluoro-benzoylamino)-1H-pyrazole-3-carboxylic acid (4H-[1,2,4]triazol-3-ylmethyl)-amide dihydrochloride] belongs under 0.1 µM; to `CC(C)N(C(=O)c1cc(NC(=O)c2cc(F)c(F)cc2Cl)[nH]n1)c1ccccc1` [Example 4-3], 0.1 to 0.3 µM.
For `O=C(NCc1cccnc1)c1cc(NC(=O)c2sc(Cl)c(Cl)c2Cl)[nH]n1` [Example 7-14], the inhibition at 0.1 µM under setting [3] came out at 4.6%.
Regarding `O=C(NCc1cccnc1)c1cc(NC(=O)c2sccc2Cl)[nH]n1` [Example 7-7], under setting [4], the inhibition at 0.3 µM was found to be 2.9%.
As for `CCCN(C(=O)c1cc(NC(=O)c2cc(F)c(F)cc2Cl)[nH]n1)C1CCN(C(=O)CCC(=O)O)CC1` [Example 1-125], the IC50 under setting [2] was under 0.1 µM.
For the compound `O=C(NCCc1cccnc1)c1cc(NC(=O)c2cc(F)c(F)cc2Cl)[nH]n1` [Example 1-140], the inhibition at 0.1 µM under setting [1] came to 30.8%.
On to `CCOC(=O)C1CCN(C(=O)c2cc(NC(=O)c3cc(F)c(F)cc3Cl)[nH]n2)CC1` [Example 3-6], for which the inhibition at 1 µM under setting [5] stood at 42.5%.
As for `CN(C)CCN(C(=O)c1cc(NC(=O)c2cc(F)c(F)cc2Cl)[nH]n1)C1CCCCC1` [Example 3-44], under setting [2], the IC50 fell in the range of 0.1 to 0.3 µM.
Take `CCN(CCOC)C(=O)c1cc(NC(=O)c2cc(F)c(F)cc2Cl)[nH]n1` [Example 1-7]: the IC50 under setting [2] lay within 0.1 to 0.3 µM.
For the compound `CCOCCCN(C(=O)c1cc(NC(=O)c2cc(F)c(F)cc2Cl)[nH]n1)C1CCCCC1` [Example 1-102], the IC50 under setting [2] was under 0.1 µM.
On the same count and under the same terms, then `O=C(NCCO)c1ccc(CNC(=O)c2cc(NC(=O)c3cc(F)c(F)cc3Cl)[nH]n2)cc1` [Example 1-48], with under 0.1 µM.
Turning to `CN(C(=O)c1cc(NC(=O)c2cc(F)c(Cl)cc2Cl)[nH]n1)c1ccc(C(N)=O)cc1` [Example 6-2], the inhibition at 0.3 µM under setting [4] turned out to be 12.3%.
With `O=C(Nc1cc(C(=O)N(CC(=O)N2CCCCC2)c2ccccc2)n[nH]1)c1cc(F)c(F)cc1Cl` [Example 4-11], the IC50 under setting [2] was under 0.1 µM.
Consider `CC(=N)Nc1ccccc1CNC(=O)c1cc(NC(=O)c2cc(F)c(F)cc2Cl)[nH]n1` [Example 6-30], for which the IC50 under setting [6] is under 0.1 µM.
For `COCCN(Cc1ccccc1)C(=O)c1cc(NC(=O)c2cc(F)c(F)cc2Cl)[nH]n1` [Example 1-108], the inhibition at 0.3 µM under setting [7] came out at 45.3%.
Take `COc1ccc(CNC(=O)c2cc(NC(=O)c3ccc(Cl)cc3Cl)[nH]n2)cn1` [Example 3-50]: the IC50 under setting [2] is under 0.1 µM.
Consider `O=C(Nc1cc(C(=O)N2CCCCC2)n[nH]1)c1cc(F)c(F)cc1Cl` [Example 3-5], for which, under setting [5], the inhibition at 1 µM was determined as 41.1%.
Take `Cc1nc(C)c(CNC(=O)c2cc(NC(=O)c3cc(F)c(Cl)cc3Cl)[nH]n2)o1` [Example 3-53]: under setting [2], the IC50 was under 0.1 µM.
Turning to `NCc1ccnc(CNC(=O)c2cc(NC(=O)c3cc(F)c(F)cc3Cl)[nH]n2)c1` [Example 5-18], the IC50 under setting [2] was under 0.1 µM.
`Cc1ccc(C(=O)Nc2cc(C(=O)NCc3ccccc3)n[nH]2)c(Cl)n1` [Example 4-43]: the inhibition at 0.3 µM under setting [7] was 3.8%.
Still for that read-out and setting: to `Cc1ncccc1C(=O)Nc1cc(C(=O)NCc2ccccc2)n[nH]1` [Example 4-42] belongs 8.5%.
For the compound `CC(=N)Nc1cccc(CNC(=O)c2cc(NC(=O)c3cc(F)c(F)cc3Cl)[nH]n2)c1` [Example 6-31], the IC50 under setting [6] is under 0.1 µM.
Turning to `CN(C(=O)c1cc(NC(=O)c2cc(F)c(F)cc2Cl)[nH]n1)c1ccc(C(=O)NS(C)(=O)=O)cc1` [Example 6-5], the IC50 under setting [6] was under 0.1 µM.
For `COc1ccc(CNC(=O)c2cc(NC(=O)c3cc(F)c(F)cc3Cl)[nH]n2)c(OC)c1` [Example 1-14], the IC50 under setting [2] is under 0.1 µM.
Regarding `Cc1nc(CNC(=O)c2cc(NC(=O)c3cc(F)c(F)cc3Cl)[nH]n2)c(C)s1` [Example 1-53], the concentration for half-maximal inhibition (IC50) under setting [2] is under 0.1 µM.
Consider `CCOc1cc(C(C)(C)C(=O)O)cnc1NC(=O)c1cc(NC(=O)c2cc(F)c(F)cc2Cl)[nH]n1` [Example 1-151], for which the “inhibition rate (%) at a certain concentration” value (shortened to “inhibition rate (%)”) under setting [8] was 13.3%(100).
As for `O=C(NCc1ccc(N2CCS(=O)(=O)CC2)nc1)c1cc(NC(=O)c2cc(F)c(F)cc2Cl)[nH]n1` [Example 1-154], the IC50 under setting [2] is under 0.1 µM.
For the compound `O=C(Nc1cccc2cnccc12)c1cc(NC(=O)c2cc(F)c(F)cc2Cl)[nH]n1` [Example 5-38], the “inhibition rate (%)” value under setting [8] is 15.2% (100).
Consider `COC(=O)CCN(C(=O)c1cc(NC(=O)c2cc(F)c(F)cc2Cl)[nH]n1)c1ccccc1` [Example 4-25], for which the IC50 under setting [2] is under 0.1 µM.
On the same count and under the same terms, to `Nc1ccccc1CNC(=O)c1cc(NC(=O)c2cc(F)c(F)cc2Cl)[nH]n1` [Example 1-65] belongs under 0.1 µM.
For the compound `CC(=Nc1ccccc1CNC(=O)c1cc(NC(=O)c2cc(F)c(F)cc2Cl)[nH]n1)N(C)C` [Example 6-24], the 50% inhibitory concentration (IC50) under setting [6] is under 0.1 µM.
As to `CCOC(=O)C(C)(C)c1cnc(NC(=O)c2cc(NC(=O)c3cc(F)c(F)cc3Cl)[nH]n2)c(OCC)c1` [Example 1-148], the inhibition at 0.1 µM under setting [1] is 14.1%.
For `CCc1nc(C)oc1CNC(=O)c1cc(NC(=O)c2cc(F)c(F)cc2Cl)[nH]n1` [Example 1-157], the IC50 under setting [2] was under 0.1 µM.
On the same count and under the same terms, then `CC(C)(C)OC(=O)NCc1ccnc(CNC(=O)c2cc(NC(=O)c3cc(F)c(F)cc3Cl)[nH]n2)c1` [Example 1-62], with under 0.1 µM; and `Cc1ccc(F)cc1C(=O)Nc1cc(C(=O)NCc2ccccc2)n[nH]1` [Example 4-12], with 0.1 to 0.3 µM.
With `CC(=O)Nc1cc(F)c(F)cc1C(=O)Nc1cc(C(=O)NCc2cccnc2)n[nH]1` [Example 7-13], the inhibition at 0.1 µM under setting [3] stood at 1.9%.
As for `O=C(Nc1cccc2cccnc12)c1cc(NC(=O)c2cc(F)c(F)cc2Cl)[nH]n1` [Example 5-37], the “inhibition rate (%)” value under setting [8] was 22.3% (100).
Take `CN(C)C(=O)Nc1cccc(CNC(=O)c2cc(NC(=O)c3cc(F)c(F)cc3Cl)[nH]n2)c1` [Example 6-36]: the IC50 under setting [6] is under 0.1 µM.
Take `Cc1ccc(CNC(=O)c2cc(NC(=O)c3cc(F)c(F)cc3Cl)[nH]n2)c(=O)[nH]1` [Example 2-33]: under setting [2], the IC50 was under 0.1 µM.
Still for that read-out and setting: then `O=C(NCc1ccc(F)c(F)c1)c1cc(NC(=O)c2cc(F)c(F)cc2Cl)[nH]n1` [Example 1-22], with under 0.1 µM.
With `CC(=O)Nc1cccc(CNC(=O)c2cc(NC(=O)c3cc(F)c(F)cc3Cl)[nH]n2)c1` [Example 2-17], the IC50 under setting [2] is under 0.1 µM.
For `Cc1ccc(F)c(C(=O)Nc2cc(C(=O)NCc3ccccc3)n[nH]2)c1` [Example 4-19], the inhibition at 0.3 µM under setting [7] was determined as 3.3%.
With `O=C(NN1CCOCC1)c1ccc(CNC(=O)c2cc(NC(=O)c3cc(F)c(F)cc3Cl)[nH]n2)cc1` [Example 5-5], under setting [2], the IC50 is under 0.1 µM.
Regarding `O=C(Nc1cc(C(=O)N2CCc3ccccc3C2)n[nH]1)c1cc(F)c(F)cc1Cl` [Example 3-12], the inhibition at 0.4 µM (compound concentration 400 nmol (in parentheses), read-out: inhibition rate (%) at a certain concentration) was 50%.
`O=C(NCc1cc(Cl)c(Cl)s1)c1cc(NC(=O)c2cc(F)c(F)cc2Cl)[nH]n1` [Example 1-161]: under setting [2], the IC50 was under 0.1 µM.
Regarding `O=C(NCc1ccccc1F)c1cc(NC(=O)c2cc(F)c(F)cc2Cl)[nH]n1` [Example 1-8], the IC50 under setting [2] was under 0.1 µM.
For the compound `CN(C(=O)c1cc(NC(=O)c2cc(F)c(N=[N+]=[N-])cc2Cl)[nH]n1)c1ccc(C#N)cc1` [Example 6-9], the inhibition at 0.3 µM under setting [4] was 5.5%.
`CN(C)c1ccccc1CNC(=O)c1cc(NC(=O)c2cc(F)c(F)cc2Cl)[nH]n1` [Example 1-10]: under setting [2], the half-inhibitory concentration (IC50) lay within 0.1 to 0.3 µM.
Turning to `CN(CCc1ccccc1)C(=O)c1cc(NC(=O)c2cc(F)c(F)cc2Cl)[nH]n1` [Example 3-10], the inhibition at 1 µM under setting [5] was determined as 23.2%.
